Here are results for twelve compounds from patent publication US20230202985A1, “Indoles, Indazoles, and Related Analogs for Inhibiting YAP/TAZ-TEAD” (THE KATHOLIEKE UNIVERSITEIT LEUVEN, priority 2021, published 2023).

Holding throughout (assay type): cell-based
Assay [1] relates to YAP/TAZ-TEAD transcription. The experiment in a line: Reporter gene assay for measuring the inhibition of YAP/TAZ-TEAD transcription (TEAD-responsive element luciferase reporter in Hek293T cells). As to conditions: Homo sapiens, HEK-293T; Hek293T cells transfected with TEAD-responsive luciferase reporter, 24 hours incubation. Here is the method: Hek293T cells are cultured in DMEM supplemented with 10% fetal bovine serum, Sodium pyruvate, Sodium bicarbonate, L-glutamine. The cells are harvested and transiently transfected with TEAD-responsive element luciferase reporter. Transfected cells are plated in 384-wells plate containing pre-diluted compounds. After 24 hours incubation at 37° C./5% CO2, assay plates were cooled down to RT and levelled to an equal volume per well, prior to the addition of 25 uL luciferase substrate SteadyLite (Perkin Elmer)/well. The plate was shaken for 10 min at 600 rpm, centrifuged for 1 min at 500 rpm and measured with an Envision reader (PerkinElmer). The amount of relative light units produced by the TEAD reporter is used to calculated percent of inhibition.
The percent of reporter inhibition was calculated in the presence of a positive control inhibitor (100% inhibition) versus a condition with the presence of the vehicle basal activity of the reporter (0% inhibition). The ability of a test compound to inhibit this activity was determined as:
Percentage inhibition=[1−((RLU determined in the presence of vehicle−RLU determined for sample with test compound present) divided by (RLU determined in the presence of vehicle−RLU determined for sample with positive control inhibitor))]*100
The activities of example compounds tested are depicted in Table 6. The activity ranges A, B and C refer to IC50 values in the reporter gene assay as follows: “A”: IC50<1 μM; “B”: 1 μM≤IC50≤20 μM and “C”: IC50>20 μM; NT=not tested.
On the technique in general: A reporter such as luciferase makes a cellular process visible.

A further assay relates to NCI-H226. The experiment in a line: Mesothelioma cell line proliferation assay (ATPlite), NCI-H226. The following applies: Homo sapiens, 144 h; NCI-H226 cells, 6 days with compound, cell viability by ATPlite. Here is the method:
(§1) Mesothelioma cell lines, NCI-H226 and NCI-H2052 (all sourced from the ATCC cell culture collection) are plated in 96-well plates (Corning® 96 Well White Polystyrene Microplate clear flat bottom, white polystyrene (TC-Treated)), at 1500 cells/well in full medium (RPMI 1640 ATCC modification with L-glutamine, HEPES, Phenol Red, Sodium Pyruvate, High glucose, Low sodium bicarbonate and 10% fetal bovine serum). Cells are incubated overnight at 37° C. in an incubator with 5% CO2. Then compounds, dissolved in DMSO, are added in dose-response. Cells are incubated with compound dilutions for another 6 days at 37° C. in an incubator with 5% CO2. Cell viability is quantitated using the ATPlite kit (Perkin-Elmer) and the luminescence is read-out using an Envision instrument (Perkin-Elmer). The amount of relative light units produced using the ATPlite kit is used to calculated percent of inhibition.
(§2) The activities of some example compounds are depicted in Table 7. The activity ranges A, B and C refer to EC50 values in the mesothelioma cell line proliferation assay as described as follows: “A”: EC50<1 μM; “B”: 1 μM≤EC50≤10 μM and “C”: EC50>10 μM; NT: not tested.
(In general: ATP-based viability assays read luminescence as a measure of living cells.)

The test system of another assay is NCI-H2052. The experiment in a line: Mesothelioma cell line proliferation assay (ATPlite), NCI-H2052. As to conditions: Homo sapiens, 144 h; NCI-H2052 cells, 6 days with compound, cell viability by ATPlite. As to the method:
as §1, §2

Where only a bound is given, the exact number is not on record here.

As to `C=CC(=O)NCc1cc2ccccc2n1Cc1ccc(C(F)(F)F)cc1` [compound 31, N-((1-(4-(trifluoromethyl)benzyl)-1H-indol-2-yl)methyl)acrylamide], the EC50 was less than 1000 nM in assay [1], less than 1000 nM in the assay with NCI-H226 and 1000 to 10000 nM in the assay on NCI-H2052.
In the case of `C=CC(=O)NCc1nn(-c2ccc(C(F)(F)F)cc2)c2cccnc12` [compound 40, N-((1-(4-(trifluoromethyl)phenyl)-1H-pyrazolo[4,3-b]pyridin-3-yl)methyl)acrylamide], the EC50 (in assay [1]; with NCI-H226; in the assay on NCI-H2052) was less than 1000 nM throughout.
Consider `C=CC(=O)NCc1nn(-c2ccc(C(F)(F)F)cc2)c2ccc(Oc3ccccc3)cc12` [compound 49, N-[[5-phenoxy-1-[4-(trifluoromethyl)phenyl]indazol-3-yl]methyl]prop-2-enamide], for which the concentration for a half-maximal effect (EC50) (in assay [1]; in the assay on NCI-H226; in the assay on NCI-H2052) was less than 1000 nM each time.
`C=CC(=O)NCc1nn(-c2ccc(C(F)(F)F)cc2)c2cc(OC3CC3)ccc12` [compound 50, N-[[6-(cyclopropoxy)-1-[4-(trifluoromethyl)phenyl]indazol-3-yl]methyl]prop-2-enamide]: the 50% effective concentration (EC50) (in assay [1]; in the assay with NCI-H226; with NCI-H2052) was less than 1000 nM each time.
Consider `C=CC(=O)NCc1nn(-c2ccc(C(F)(F)F)cc2)c2ccc(OCc3ccccc3)cc12` [compound 54, N-[[5-benzyloxy-1-[4-(trifluoromethyl)phenyl]indazol-3-yl]methyl]prop-2-enamide], for which the 50% effective concentration (EC50) (in assay [1]; with NCI-H226; with NCI-H2052) was less than 1000 nM in each case.
As for `C=CC(=O)NCc1nn(-c2ccc(C(F)(F)F)cc2)c2ccc(OCc3cc[nH]n3)cc12` [compound 58, N-[[5-(1H-pyrazol-3-ylmethoxy)-1-[4-(trifluoromethyl)phenyl]indazol-3-yl]methyl]prop-2-enamide], the EC50 (in assay [1]; in the assay with NCI-H226; in the assay with NCI-H2052) was less than 1000 nM each time.
For the compound `C=CC(=O)NCc1nn(-c2ccc(C(F)(F)F)cc2)c2cnccc12` [compound 59, N-[[1-[4-(trifluoromethyl)phenyl]pyrazolo[3,4-c]pyridin-3-yl]methyl]prop-2-enamide], the EC50 (in assay [1]; in the assay with NCI-H226; in the assay with NCI-H2052) was less than 1000 nM throughout.
For `C#CCOc1ccc2c(c1)c(CNC(=O)C=C)nn2-c1ccc(C(F)(F)F)cc1` [compound 63, N-[[5-prop-2-ynoxy-1-[4-(trifluoromethyl)phenyl]indazol-3-yl]methyl]prop-2-enamide], the EC50 (in assay [1]; in the assay with NCI-H226; in the assay on NCI-H2052) was less than 1000 nM in each case.
As for `C=CC(=O)NCc1nn(-c2ccc(C(F)(F)F)cc2)c2ccc(OCC3CC3)cc12` [compound 66, N-[[5-(cyclopropylmethoxy)-1-[4-(trifluoromethyl)phenyl]indazol-3-yl]methyl]prop-2-enamide], the EC50 (in assay [1]; with NCI-H226; in the assay with NCI-H2052) was less than 1000 nM throughout.
As to `C=CC(=O)NCc1nn(-c2ccc(C(F)(F)F)cc2)c2ccc(C(F)(F)F)cc12` [compound 71, N-[[5-(trifluoromethyl)-1-[4-(trifluoromethyl)phenyl]indazol-3-yl]methyl]prop-2-enamide], the EC50 (in assay [1]; with NCI-H226; in the assay on NCI-H2052) was less than 1000 nM each time.
Regarding `C=CC(=O)NCc1nn(-c2ccc(C(F)(F)F)cc2)c2cc(C(F)(F)F)ccc12` [compound 74, N-[[6-(trifluoromethyl)-1-[4-(trifluoromethyl)phenyl]indazol-3-yl]methyl]prop-2-enamide], the concentration for a half-maximal effect (EC50) (in assay [1]; in the assay on NCI-H226; with NCI-H2052) was less than 1000 nM each time.
In the case of `C=CC(=O)NCc1nn(C2CCC(F)(F)CC2)c2ccccc12` [compound 77, N-[[1-(4,4-difluorocyclohexyl)indazol-3-yl]methyl]prop-2-enamide], the EC50 (in assay [1]; with NCI-H226; with NCI-H2052) was less than 1000 nM throughout.

In general, EC50 refers to the concentration needed to bring the measured effect to its halfway point.
